Values of other authors as cited in US6409990B1, “Macromolecular carrier for drug and diagnostic agent delivery” (The Regents of the University of California, priority 1999, dated 2002).

Details: similar time postinjection; Grist TM et al.

O=C([O-])CN(CCN(CC(=O)[O-])C[C@H](COP(=O)([O-])OC1CCC(c2ccccc2)(c2ccccc2)CC1)N(CC(=O)[O-])CC(=O)[O-])CC(=O)[O-].[Gd+3].[H+].[H+].[H+] [MS-325]
typical CNR in the human aorta: 42
